From patent EP0012435A2, “Isoxazole derivatives, process for their preparation, medicines containing them and intermediates required in this process” (HOECHST AKTIENGESELLSCHAFT, priority 1978, dated 1980)
Marks after values point to notes of the source that are not given here.

Experiments:
[1] = Ulcerogenic effect (gastric mucosal lesions after oral dose); format: in vivo, Ratten; settings: rat, gastric mucosa, fasted rats, killed 24 h after dose, UD50 by Litchfield and Wilcoxon, read-out: Ulzerogenität UD50
From the text: (§1) Die Untersuchungen erfolgten an männlichen Sprague-Dawley Ratten im Körpergewicht zwischen 200 und 300 g. 48 Stunden vor Applikation der Testsubstanzen bis zum Töten der Tiere wurde das Futter entzogen, bei freiem Zugang zum Trinkwasser. Die Ratten wurden 24 Stunden nach oraler Gabe getötet, der Magen entommen, unter fließendem Wasser gereinigt und auf Schleimhautlösionen inspiziert. Als Ulzera galten alle makroskopisch sichtbaren Läsionen. Bestimmt wurde der Anteil der Tiere mit Ulzera pro dosi und die UD50 nach Litchfield und Wilcoxon (J. Pharmacol. exp. Ther. 96, 99 (1949)).

[2] = Acute toxicity; settings: mouse, in vivo, ip; NMRI mice, intraperitoneal, mortality within 7 days; read-out: Toxizität LD50-Bereich (Maus i.p.)
From the text: Die Bestimmung der LD50-Bereiche erfolgte standardgemäß über die innerhalb von 7 Tagen bei NMRI-Mäusen nach intraperitonealer Gabe auftretende Mortalität.

[3] = test system: männliche Ratten eines Wistar-Lewis-Stammes; assay: Adjuvant arthritis, preventive test (method of Pearson); format: in vivo; settings: for ED50: Rattus norvegicus, 408 h, read-out: Adjuvans-Arthritis ED50; for Therapeut. Index UD50 / ED50: ratio of ulcerogenic UD50 to adjuvant arthritis ED50
From the text: 1. Adjuvans-Arthritis, praeventive Testung
Die Untersuchungen wurden nach der Methode von Pearson durchgeführt (Arthrit. Rheum. 2, 440 (1959)). Als Versuchstiere dienten männliche Ratten eines Wistar-Lewis-Stammes im Körpergewicht zwischen 130 und 200 g. Die zu prüfenden Verbindungen wurden täglich vom 1. bis 17. Versuchstag oral appliziert. Tiere einer Kontrollgruppe erhielten nur das Lösungsmittel. Als Wirkungskriterium diente die Herabsetzung der Pfoten-Volumenzunahme gegenüber der unbehandelten Kontrollgruppe. Die ED50-Werte wurden graphisch aus der Dosiswirkungskurve bestimmt.

[4] = test system: NMRI-Mäusen; settings: literature value (Barnes and Eltherington, Drug Dosage in Laboratory Animals, 1973, p. 199); cited from earlier work
[5] = test system: männlichen Sprague-Dawley Ratten; assay: Ulcerogenic effect (gastric mucosal lesions after oral dose); format: in vivo; settings: fasted rats, killed 24 h after dose, UD50 by Litchfield and Wilcoxon
From the text: as §1

[6] = oral, daily from day 1 to 17, reduction of paw volume increase vs. control, ED50 read graphically from dose-response curve

Question: For `CCc1oncc1C(=O)Nc1ccc(C(F)(F)F)cc1` [Beispiel 1, N-(4-Trifluormethylphenyl)-5-äthylisoxazol-4-carboxamid], which TD50 at 24 h [1] is on record?
Answer: 70 mg/kg

Question: And the LD50 at 168 h [2]?
Answer: 150 to 300 mg/kg

Question: What about the ED50 [3, 6] of the same compound?
Answer: 6 mg/kg

Question: And the “Therapeut. Index UD50 / ED50” value [3]?
Answer: 12

Question: For `O=C(Nc1ccc(C(F)(F)F)cc1)c1cnoc1C(F)(F)F` [Beispiel 6, N-(4-Trifluormethylphenyl)-5-trifluormethylisoxazol-4-carboxamid], which TD50 at 24 h [1] is on record?
Answer: 80 mg/kg

Question: And the ED50 [3, 6]?
Answer: 3 mg/kg

Question: And the “Therapeut. Index UD50 / ED50” value [3]?
Answer: 27

Question: For `Cc1oncc1C(=O)Nc1ccc(Oc2ccc(C(F)(F)F)cc2)cc1` [Beispiel 10, N-[4-(4-Trifluormethylphenoxy)-phenyl]-5-methylisoxazol-4-carboxamid], which TD50 at 24 h [1] is on record?
Answer: 230 mg/kg

Question: And the LD50 at 168 h [2]?
Answer: 150 to 300 mg/kg

Question: What about the ED50 [3, 6] of the same compound?
Answer: 8 mg/kg

Question: What about the “Therapeut. Index UD50 / ED50” value [3] of the same compound?
Answer: 29

Question: With `Cc1oncc1C(=O)Nc1ccc(F)cc1` [P 25 24 959 Nr. 10, N-(4-Fluorphenyl)-5-methylisoxazol-4-carboxamid, reference compound] as the compound, how does the TD50 at 24 h [1] read?
Answer: 250 mg/kg

Question: What about the LD50 at 168 h [2] of the same compound?
Answer: 200 to 400 mg/kg

Question: What about the ED50 [3, 6] of the same compound?
Answer: 15 mg/kg

Question: What about the “Therapeut. Index UD50 / ED50” value [3] of the same compound?
Answer: 17

Question: With “Phenylbutazon [Phenyl=butazon, reference compound]” as the compound, how does the “Toxizität LD50 (Maus i.p.)” value [4] read?
Answer: LD50 = 336^* mg/kg

Question: And the “Ulzerogenität UD50” value [5]?
Answer: 100 mg/kg

Question: And the “Adjuvans-Arthritis ED50” value ([3]; oral, daily from day 1 to 17, reduction of paw volume increase vs. control, ED50 read graphically from dose-response curve, 24480 min)?
Answer: 37 mg/kg
